Legend:
red blood cells (RBCs) [1] = test: Fluorescence and bright field microscopy of RBCs and ghosts; assay type: cell-based; settings: Figure 2A; for association with RBCs prior to irradiation (fluorescence distribution): RBCs incubated with compound, fluorescence microscopy; for morphology of RBCs incubated with compound before irradiation: bright field microscopy
[2] = in aqueous solution; standards of the RNO assay; cited from earlier work
red blood cells (RBCs) [3] = test: Photohemolysis assay of fluorescently labeled CPPs; assay type: cell-based; settings: singlet oxygen quencher/inhibitor added to TMR-TAT and RBCs; Figure 1B
red blood cells (RBCs) [4] = test system: red blood cells (RBCs)

Compound	association with RBCs prior to irradiation (fluorescence distribution) (red blood cells (RBCs) [1])	morphology of RBCs incubated with compound before irradiation (red blood cells (RBCs) [1])	singlet oxygen quantum yield [2]	effect on TMR-TAT mediated photohemolysis (red blood cells (RBCs) [3])	other results
CC1=C(CCC(=O)O)c2cc3[nH]c(cc4nc(cc5[nH]c(cc1n2)c(C)c5C(C)O)C(C)=C4C(C)O)c(C)c3CCC(=O)O (stereo not shown) [HP, hematoporphyrin]	strong fluorescence signals were present on the surface of the cells	formed echinocytes			
O=C1OC2(c3cc(I)c(O)c(I)c3Oc3c2cc(I)c(O)c3I)c2c(Cl)c(Cl)c(Cl)c(Cl)c21 [RB, Rose Bengal]	strong fluorescence signals were present on the surface of the cells	formed echinocytes	0.76		
CC(/C=C/C=C(\C)C(=O)O)=C\C=C\C=C(C)\C=C\C=C(/C)C(=O)O [crocetin]				significant decrease in photohemolytic activity	
O=C1OC2(c3ccccc31)c1cc(Br)c(O)c(Br)c1Oc1c2cc(Br)c(O)c1Br [eosin Y]			0.57		
CC(=O)Oc1c(C)c(C)c2c(c1C)CCC(C)(CCC[C@H](C)CCC[C@H](C)CCCC(C)C)O2 (stereo partly drawn) [tocopherol, α-tocopheryl acetate]				significant decrease in photohemolytic activity	
GRRRRRRRRR-NH2 [R9]					lysis with RB and peptide co-incubated (red blood cells (RBCs) [4]; RB and R9 co-incubated during irradiation, same conditions, data not shown): 93±3%; lytic effect of peptides alone (red blood cells (RBCs) [4]; in the dark or when cells were irradiated without RB present): not lytic by themselves

From article PMC3622158 (Photochemistry and photobiology, 2013)
